We go through 15 compounds from publication PMC2852148 (Biochemistry, 2010).

One may read the EC50 as the concentration giving half of the maximal effect.

The target in assay [1] is T1, RDL receptors (Drosophila melanogaster, UniProt P25123).
T1 sequence (P25123 45-606): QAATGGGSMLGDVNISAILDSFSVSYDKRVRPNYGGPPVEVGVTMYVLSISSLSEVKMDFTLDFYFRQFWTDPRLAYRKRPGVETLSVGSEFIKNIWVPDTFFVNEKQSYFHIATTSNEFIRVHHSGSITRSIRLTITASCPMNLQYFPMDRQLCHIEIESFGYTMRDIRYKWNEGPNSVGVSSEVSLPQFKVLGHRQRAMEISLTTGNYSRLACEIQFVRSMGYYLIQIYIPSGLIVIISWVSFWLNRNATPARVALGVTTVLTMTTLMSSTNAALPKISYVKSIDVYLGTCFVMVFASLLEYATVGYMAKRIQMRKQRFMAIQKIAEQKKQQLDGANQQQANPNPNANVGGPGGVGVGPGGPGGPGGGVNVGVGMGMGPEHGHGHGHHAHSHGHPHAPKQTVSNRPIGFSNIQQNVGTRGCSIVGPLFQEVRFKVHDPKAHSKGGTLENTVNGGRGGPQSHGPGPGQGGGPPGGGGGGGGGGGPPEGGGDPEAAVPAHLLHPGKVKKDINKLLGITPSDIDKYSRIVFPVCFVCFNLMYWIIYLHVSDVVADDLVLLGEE
As to the kind of experiment: Two-electrode voltage clamp of RDL receptors expressed in Xenopus oocytes. The assay is classed as cell-based. Conditions: for EC50: EC50, RDL receptors in Xenopus oocytes; for nH (Hill coefficient) / Imax/Imax(GABA) / pEC50: means ± SEM; for Imax/Imax(GABA): maximal current relative to maximal GABA-evoked response; for pEC50: -60 mV, N/R = no response.

Assay [2] has as its target T1, RDL receptors. The note with it: background statement; cited from earlier work.
The mark [3] stands for this setting: RDL receptors in Xenopus oocytes.
Setting [4] is: applied at concentrations up to 10 mM.

Several values for one entry are separate records, joined by “and”; a condition that tells them apart may be missing. Equal entries are not always repeated. Entries after “also recorded” stand apart in the source; their conditions may differ. A value given as a limit tells only on which side of the number the result lay.

For the compound `NCCS(=O)(=O)O` [taurine], the EC50 in assay [1] and in assay [1] (Table 1) was > 10000 µM each time.
In assay [1] (Table 1), `NCC=CC(=O)O` [TACA, 4-amino-2-butenoic acid] returned an EC50 of 36.7 µM. Further, the “nH (Hill coefficient)” value in assay [1] (setting [3]) is reported as 1.8 ± 0.2. Moreover, the “Imax/Imax(GABA)” value in assay [1] is 1.0 ± 0.02.
With `NCCCCC(=O)O` [5-AV, 5-aminovaleric acid], the EC50 in assay [1] is 1100 µM and ~1000 µM; in assay [1] (Table 1), 1120 µM. The “nH (Hill coefficient)” value in assay [1] (setting [3]) is 1.0 ± 0.3. The “Imax/Imax(GABA)” value in assay [1] is listed as 0.85 ± 0.1.
Take `NCCC(=O)O` [β-alanine]: in assay [1], the EC50 was 800 µM and ~1000 µM; the “Imax/Imax(GABA)” value was 1.0 ± 0.03. The compound also gave an EC50 in assay [1] (Table 1) of 807 µM. For the same compound, in assay [1] (setting [3]), the “nH (Hill coefficient)” value stood at 2.0 ± 0.3.
In turn, `O=C(O)C1=CCNCC1` [isoguvacine] yielded an EC50 in assay [1] (Table 1) of 64.9 µM. For the same compound, the “nH (Hill coefficient)” value in assay [1] (setting [3]) turned out to be 1.9 ± 0.2. In addition, the “Imax/Imax(GABA)” value in assay [1] amounted to 0.97 ± 0.03.
Take `Nc1ccc(C(=O)O)cc1` [PABA, p-aminobenzoic acid]: the pEC50 entry in assay [1] (setting [3]) is “N/R”. For the same compound, the “activation of RDL receptors (in words)” value in assay [1] (setting [4]) was “failed to activate”.
Regarding `NCC(=O)O` [glycine], in assay [1] (setting [3]), the “activation of RDL receptors (in words)” value is “inactive” and the pEC50 result was “N/R”. Besides, the “activation of RDL receptors (in words)” value in assay [1] (setting [4]) is recorded as “failed to activate”.
On the same counts, the results for `NCCc1ccc(O)cc1` [tyramine] are “inactive”, “N/R” and “failed to activate”.
For `Oc1noc2c1CCNC2` [THIP, 4,5,6,7-tetrahydroisoxazolo[5,4-c]pyridin-3-ol], in assay [1], the half-maximal effective concentration (EC50) was found to be 220 µM and the “Imax/Imax(GABA)” value was 0.57 ± 0.06. Also, the EC50 in assay [1] (Table 1) was 226 µM. Also, in assay [1] (setting [3]), the “agonist type at RDL receptors” value was “partial agonist” and the “nH (Hill coefficient)” value was found to be 2.4 ± 1.0.
For the compound `NCCCCO` [4-AB, 4-amino-1-butanol], the results for the “activation of RDL receptors (in words)” value in assay [1] (setting [3]) and in assay [1] (setting [4]) were “inactive” and “failed to activate”, respectively. Besides, the pEC50 result in assay [1] (setting [3]) is listed as “N/R”.
Regarding `NCc1cc(=O)[nH]o1` [muscimol], the EC50 in assay [1] (Table 1) is 9.04 µM. For the same compound, in assay [1] (setting [3]), the “agonist type at RDL receptors” value is “full agonist” and the “nH (Hill coefficient)” value stood at 2.2 ± 0.6. Also, the “Imax/Imax(GABA)” value in assay [1] was found to be 0.87 ± 0.03.
`CN1CCc2cc3c(cc2[C@H]1[C@@H]1OC(=O)c2c1ccc1c2OCO1)OCO3` [bicuculline]: the “inhibition of homomeric RDL receptors (in words)” value in assay [2] is “not inhibited”.
For the compound `NCCCP(=O)(O)O` [3-APP, 3-aminopropylphosphonic acid], in assay [1] (setting [3]), the “activation of RDL receptors (in words)” value was “no activating effect; also recorded: inactive” and the pEC50 result is “N/R”.
For `NCCCC(=O)O` [GABA, γ-aminobutyric acid], in assay [1] (setting [3]), the “nH (Hill coefficient)” value amounted to 1.8 ± 0.2.
In the case of picrotoxin, in assay [2], the “inhibition of homomeric RDL receptors (in words)” value is “inhibited”.
